Data: patent publication US11161854B2, “Indazolyl-spiro[2.2]pentane-carbonitrile derivatives as LRRK2 inhibitors, pharmaceutical compositions, and uses thereof” (Merck Sharp & Dohme Corp., priority 2017, dated 2021)

Target: GST-tagged truncated human mutant G2019S LRRK2 (Homo sapiens (Human), UniProt Q5S007, G2019S)
Assay: LRRK2 G2019S Km ATP LanthaScreen Assay
Format: biochemical
Settings: 134 μM ATP (Km ATP); fluorescein-labeled LRRKtide substrate; mean IC50 values
Method: The IC50 values reported herein were measured as follows.
Biological Assay: LRRK2 Km ATP LanthaScreen™ Assay
The data presented for the Km ATP LanthaScreen™ Assay represents mean IC50 values based on several test results and may have reasonable deviations depending on the specific conditions and reagents used. Assays were performed in the presence of 134 μM ATP (Km ATP). Upon completion, the assay was stopped and phosphorylated substrate detected with a terbium (Tb)-labeled anti-pERM antibody (cat. no. PV4898). The compound dose response was prepared by diluting a 10 mM stock of compound to a maximum concentration of […] in 100% dimethylsulfoxide followed by custom fold serial dilution in dimethylsulfoxide nine times. Twenty nanoliters of each dilution was spotted via a Labcyte Echo onto a 384-well black-sided plate (Corning 3575) followed by 15 μl of a 1.25 nM enzyme solution in 1× assay buffer (50 mM Tris pH 8.5, 10 mM MgCl2, 0.01% Brij-35, 1 mM EGTA, 2 mM dithiothreitol, 0.05 mM sodium orthovanadate). Following a 15-minute incubation at room temperature, the kinase reaction was started with the addition of 5 μl of 400 nM fluorescein-labeled LRRKtide peptide substrate and 134 μM ATP solution in 1× assay buffer. The reaction was allowed to progress at ambient temperature for 90 minutes. The reaction was then stopped by the addition of 20 μl of TR-FRET Dilution Buffer (Life Technologies, Carlsbad, Calif.) containing 2 nM Tb-labeled anti-phospho LRRKtide antibody and 10 mM EDTA (Life Technologies, Carlsbad, Calif.). After an incubation of 1 hour at room temperature, the plate was read on an EnVision multimode plate reader (Perkin Elmer, Waltham, Mass.) with an excitation wavelength of 337 nm (Laser) and a reading emission at both 520 and 495 nm. […] Abase uses a 4 parameter (4P) logistic fit based on the Levenberg-Marquardt algorithm.

Sequence of GST-tagged truncated human mutant G2019S LRRK2 (Q5S007 970-2527 G2019S): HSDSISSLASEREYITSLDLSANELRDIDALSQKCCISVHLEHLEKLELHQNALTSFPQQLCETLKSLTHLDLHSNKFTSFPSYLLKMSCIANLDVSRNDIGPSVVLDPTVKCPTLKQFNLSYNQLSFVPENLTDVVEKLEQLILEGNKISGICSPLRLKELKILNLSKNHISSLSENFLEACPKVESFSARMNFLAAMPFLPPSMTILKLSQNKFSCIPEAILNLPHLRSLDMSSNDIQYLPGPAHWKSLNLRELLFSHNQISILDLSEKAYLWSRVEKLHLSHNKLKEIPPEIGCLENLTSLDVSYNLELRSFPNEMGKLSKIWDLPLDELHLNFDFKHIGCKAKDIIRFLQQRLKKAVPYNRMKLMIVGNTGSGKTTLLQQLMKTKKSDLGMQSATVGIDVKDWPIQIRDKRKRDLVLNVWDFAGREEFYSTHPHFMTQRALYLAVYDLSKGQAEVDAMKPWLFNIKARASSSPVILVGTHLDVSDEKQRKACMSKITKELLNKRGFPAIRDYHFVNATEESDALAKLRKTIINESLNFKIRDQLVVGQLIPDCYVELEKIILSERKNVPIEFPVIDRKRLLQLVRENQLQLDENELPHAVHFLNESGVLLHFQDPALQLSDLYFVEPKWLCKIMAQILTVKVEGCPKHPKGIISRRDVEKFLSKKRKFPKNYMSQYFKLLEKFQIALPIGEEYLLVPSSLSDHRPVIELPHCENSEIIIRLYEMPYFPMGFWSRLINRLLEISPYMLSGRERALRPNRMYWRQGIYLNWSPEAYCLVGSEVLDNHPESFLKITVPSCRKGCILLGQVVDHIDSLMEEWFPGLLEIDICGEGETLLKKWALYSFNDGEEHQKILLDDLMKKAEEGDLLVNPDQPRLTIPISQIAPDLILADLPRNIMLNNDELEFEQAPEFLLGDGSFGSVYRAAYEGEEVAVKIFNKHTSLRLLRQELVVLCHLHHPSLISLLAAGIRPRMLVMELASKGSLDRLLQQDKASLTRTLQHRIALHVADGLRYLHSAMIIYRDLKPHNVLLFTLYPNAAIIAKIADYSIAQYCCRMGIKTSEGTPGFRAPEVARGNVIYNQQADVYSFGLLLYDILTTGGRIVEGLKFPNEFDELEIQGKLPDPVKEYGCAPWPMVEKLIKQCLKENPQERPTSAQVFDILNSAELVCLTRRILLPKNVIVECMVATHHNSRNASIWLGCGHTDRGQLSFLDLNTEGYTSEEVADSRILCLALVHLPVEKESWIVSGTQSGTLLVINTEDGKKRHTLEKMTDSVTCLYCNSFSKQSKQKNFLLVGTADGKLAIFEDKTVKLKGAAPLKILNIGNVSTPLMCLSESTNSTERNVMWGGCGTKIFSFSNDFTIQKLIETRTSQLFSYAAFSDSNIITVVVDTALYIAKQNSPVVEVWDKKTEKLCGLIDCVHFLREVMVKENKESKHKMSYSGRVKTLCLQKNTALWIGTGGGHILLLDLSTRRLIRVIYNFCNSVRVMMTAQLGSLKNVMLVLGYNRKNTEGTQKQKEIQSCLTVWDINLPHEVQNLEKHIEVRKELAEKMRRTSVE

Row | Compound | IC50 [nM]
1 | CC(C)(O)[C@@H]1CCN(c2cc(-n3ncc4ccc(C5(C#N)CC56CC6)cc43)ncn2)C1 (single isomer, unassigned) [Example 1.4-1, (R or S)-1-(1-(6-((R)-3-(2-hydroxypropan-2-yl)pyrrolidin-1-yl)pyrimidin-4-yl)-1H-indazol-6-yl)spiro[2.2]pentane-1-carbonitrile] | 1
2 | COCc1nc(N2CC3(C(C)(C)O)CC2C3)cc(-n2ncc3ccc(C4(C#N)CC45CC5)cc32)n1 (single isomer, unassigned) [Example 2.3-1, (R or S)-1-(1-(6-(4-(2-hydroxypropan-2-yl)-2-azabicyclo[2.1.1]hexan-2-yl)-2-(methoxymethyl)pyrimidin-4-yl)-1H-indazol-6-yl)spiro[2.2]pentane-1-carbonitrile] | 1.1
3 | COCc1nc(N2CC3(C(C)(C)O)CC2C3)cc(-n2ncc3ccc(C4(C#N)CC45CC5)cc32)n1 (single isomer, unassigned) [Example 2.3-2, (R or S)-1-(1-(6-(4-(2-hydroxypropan-2-yl)-2-azabicyclo[2.1.1]hexan-2-yl)-2-(methoxymethyl)pyrimidin-4-yl)-1H-indazol-6-yl)spiro[2.2]pentane-1-carbonitrile] | 1.2
4 | Cc1nc(N2CC3(C(C)(C)O)CC2C3)cc(-n2ncc3ccc(C4(C#N)CC45CC5)cc32)n1 (single isomer, unassigned) [Example 2.4-1, 1-(1-(6-(4-(2-hydroxypropan-2-yl)-2-azabicyclo[2.1.1]hexan-2-yl)-2-methylpyrimidin-4-yl)-1H-indazol-6-yl)spiro[2.2]pentane-1-carbonitrile] | 2.1
5 | Cc1nc(N2CC3(C(C)(C)O)CC2C3)cc(-n2ncc3ccc(C4(C#N)CC45CC5)cc32)n1 (single isomer, unassigned) [Example 2.4-2, 1-(1-(6-(4-(2-hydroxypropan-2-yl)-2-azabicyclo[2.1.1]hexan-2-yl)-2-methylpyrimidin-4-yl)-1H-indazol-6-yl)spiro[2.2]pentane-1-carbonitrile] | 0.6
6 | COc1nc(N2CC3(C(C)(C)O)CC2C3)cc(-n2ncc3ccc(C4(C#N)CC45CC5)cc32)n1 (single isomer, unassigned) [Example 2.5-1, 1-(1-(6-(4-(2-hydroxypropan-2-yl)-2-azabicyclo[2.1.1]hexan-2-yl)-2-methoxypyrimidin-4-yl)-1H-indazol-6-yl)spiro[2.2]pentane-1-carbonitrile] | 0.9
7 | COc1nc(N2CC3(C(C)(C)O)CC2C3)cc(-n2ncc3ccc(C4(C#N)CC45CC5)cc32)n1 (single isomer, unassigned) [Example 2.5-2, 1-(1-(6-(4-(2-hydroxypropan-2-yl)-2-azabicyclo[2.1.1]hexan-2-yl)-2-methoxypyrimidin-4-yl)-1H-indazol-6-yl)spiro[2.2]pentane-1-carbonitrile] | 0.8
8 | CNc1nc(N2CC3(C(C)(C)O)CC2C3)cc(-n2ncc3ccc(C4(C#N)CC45CC5)cc32)n1 (single isomer, unassigned) [Example 2.7-1, 1-(1-(6-(4-(2-hydroxypropan-2-yl)-2-azabicyclo[2.1.1]hexan-2-yl)-2-(methylamino)pyrimidin-4-yl)-1H-indazol-6-yl)spiro[2.2]pentane-1-carbonitrile] | 3
9 | CNc1nc(N2CC3(C(C)(C)O)CC2C3)cc(-n2ncc3ccc(C4(C#N)CC45CC5)cc32)n1 (single isomer, unassigned) [Example 2.7-2, 1-(1-(6-(4-(2-hydroxypropan-2-yl)-2-azabicyclo[2.1.1]hexan-2-yl)-2-(methylamino)pyrimidin-4-yl)-1H-indazol-6-yl)spiro[2.2]pentane-1-carbonitrile] | 0.6
10 | CNc1nc(N2CC[C@H](C(F)F)C2)cc(-n2ncc3ccc(C4(C#N)CC45CC5)cc32)n1 (single isomer, unassigned) [Example 2.8-1] | 0.7
11 | CNc1nc(N2CC[C@H](C(F)F)C2)cc(-n2ncc3ccc(C4(C#N)CC45CC5)cc32)n1 (single isomer, unassigned) [Example 2.8-2] | 1.1
12 | C[C@H]1CN(c2cc(-n3ncc4ccc(C5(C#N)CC56CC6)cc43)ncn2)CCN1C1COC1 (single isomer, unassigned) [Example 3.1, (R or S)-1-(1-(6-((S)-3-methyl-4-(oxetan-3-yl)piperazin-1-yl)pyrimidin-4-yl)-1H-indazol-6-yl)spiro[2.2]pentane-1-carbonitrile] | 0.6
13 | CC1C(C(C)(C)O)CCN1c1cc(-n2ncc3ccc([C@@]4(C#N)CC45CC5)cc32)ncn1 (single isomer, unassigned) [Example 3.5-1] | 123
14 | CC1C(C(C)(C)O)CCN1c1cc(-n2ncc3ccc([C@]4(C#N)CC45CC5)cc32)ncn1 (single isomer, unassigned) [Example 3.5-2] | 31.6
15 | CC1C(C(C)(C)O)CCN1c1cc(-n2ncc3ccc([C@@]4(C#N)CC45CC5)cc32)ncn1 (single isomer, unassigned) [Example 3.5-3] | 1.9
16 | CC1C(C(C)(C)O)CCN1c1cc(-n2ncc3ccc([C@@]4(C#N)CC45CC5)cc32)ncn1 (single isomer, unassigned) [Example 3.5-4] | 0.6
17 | CC1C(C(C)(C)O)CCN1c1cc(-n2ncc3ccc([C@@]4(C#N)CC45CC5)cc32)ncn1 (single isomer, unassigned) [Example 3.5-5] | 27.6
18 | CC1C(C(C)(C)O)CCN1c1cc(-n2ncc3ccc([C@]4(C#N)CC45CC5)cc32)ncn1 (single isomer, unassigned) [Example 3.5-6] | 4.9

Row | Compound | IC50 [nM]
19 | CC1C(C(C)(C)O)CCN1c1cc(-n2ncc3ccc([C@@]4(C#N)CC45CC5)cc32)ncn1 (single isomer, unassigned) [Example 3.5-7] | 5.1
20 | CC1C(C(C)(C)O)CCN1c1cc(-n2ncc3ccc([C@]4(C#N)CC45CC5)cc32)ncn1 (single isomer, unassigned) [Example 3.5-8] | 1.1
21 | CC1CN(c2cc(-n3ncc4ccc([C@@]5(C#N)CC56CC6)cc43)ncn2)CC1C(C)(C)O (single isomer, unassigned) [Example 3.6-1] | 2.2
22 | CC1CN(c2cc(-n3ncc4ccc([C@]5(C#N)CC56CC6)cc43)ncn2)CC1C(C)(C)O (single isomer, unassigned) [Example 3.6-2] | 0.6
23 | CC1CN(c2cc(-n3ncc4ccc([C@@]5(C#N)CC56CC6)cc43)ncn2)CC1C(C)(C)O (single isomer, unassigned) [Example 3.6-3] | 9.8
24 | CC1CN(c2cc(-n3ncc4ccc([C@]5(C#N)CC56CC6)cc43)ncn2)CC1C(C)(C)O (single isomer, unassigned) [Example 3.6-4] | 2.1
25 | C[C@@H]1CN(c2cc(-n3ncc4ccc([C@@]5(C#N)CC56CC6)cc43)ncn2)CCN1C1CCOC1 (single isomer, unassigned) [Example 3.7-1] | 8
26 | C[C@@H]1CN(c2cc(-n3ncc4ccc([C@]5(C#N)CC56CC6)cc43)ncn2)CCN1C1CCOC1 (single isomer, unassigned) [Example 3.7-2] | 1.7
27 | C[C@@H]1CN(c2cc(-n3ncc4ccc([C@@]5(C#N)CC56CC6)cc43)ncn2)CCN1C1CCOC1 (single isomer, unassigned) [Example 3.7-3] | 9
28 | C[C@@H]1CN(c2cc(-n3ncc4ccc([C@]5(C#N)CC56CC6)cc43)ncn2)CCN1C1CCOC1 (single isomer, unassigned) [Example 3.7-4] | 2
29 | C[C@H]1CN(c2cc(-n3ncc4ccc([C@@]5(C#N)CC56CC6)cc43)ncn2)CCN1C1CCOC1 (single isomer, unassigned) [Example 3.8-1] | 1.6
30 | C[C@H]1CN(c2cc(-n3ncc4ccc([C@@]5(C#N)CC56CC6)cc43)ncn2)CCN1C1CCOC1 (single isomer, unassigned) [Example 3.8-2] | 0.8
31 | C[C@H]1CN(c2cc(-n3ncc4ccc([C@@]5(C#N)CC56CC6)cc43)ncn2)CCN1C1CCOC1 (single isomer, unassigned) [Example 3.8-3] | 1.3
32 | COC1(C(C)(C)O)CCN(c2cc(-n3ncc4ccc([C@@]5(C#N)CC56CC6)cc43)ncn2)C1 (single isomer, unassigned) [Example 3.10-1] | 15.1
33 | COC1(C(C)(C)O)CCN(c2cc(-n3ncc4ccc([C@]5(C#N)CC56CC6)cc43)ncn2)C1 (single isomer, unassigned) [Example 3.10-2] | 2.1
34 | COC1(C(C)(C)O)CCN(c2cc(-n3ncc4ccc([C@@]5(C#N)CC56CC6)cc43)ncn2)C1 (single isomer, unassigned) [Example 3.10-3] | 3.1
35 | COC1(C(C)(C)O)CCN(c2cc(-n3ncc4ccc([C@]5(C#N)CC56CC6)cc43)ncn2)C1 (single isomer, unassigned) [Example 3.10-4] | 0.9
36 | N#C[C@]1(c2ccc3cnn(-c4cc(N5CC(O)C6(CC6)C5)ncn4)c3c2)CC12CC2 (single isomer, unassigned) [Example 3.11-1] | 6.7
